Measured values published in patent publication US20080103199A1, “TREATMENT OF PERVASIVE DEVELOPMENTAL DISORDERS” (priority 2006, published 2008).

Legend:
submissive rats = assay: Reduction of Submissive Behavior Model (RSBM) of depression, dominant-submissive rat food competition test; assay type: in vivo, Sprague-Dawley rats; conditions: for Effect on submissive rat behavior (competitiveness, time spent at feeder): 5 weeks, submissive rat treated
Text: (§1) In this study, the effects of COMPOUND #7 on dominant or submissive behavior in pairs of rats competing for food are examined. It has been shown that anti-manic drugs, including anticonvulsants, decrease dominance and antidepressant drugs reduce submissiveness. This model uses dominant behavior as a model of mania and submissive behavior as a model of depression. The dominance and submissiveness is defined in a competition test and measured as the relative success of two food-restricted rats to gain access to a feeder. Rats are randomly paired and placed in an apparatus allowing them to compete for a food reward. The dominant-submissive relationship develops over a 2-week period. The submissive or dominant animals in pairs selected after 2 weeks of training were treated orally […] (b.i.d.) with COMPOUND #7 at 3 or 30 mg/kg for 5 weeks. The partner of the drug-treated animal was treated with vehicle.
The objective of this study was to determine if COMPOUND #7 is active in the Reduction of Submissive Behavior Model (RSBM) of depression and the Reduction of Dominant Behavior Model (RDBM) of mania. Measurements were made at two doses (3 and 30 mg/kg) after oral twice a day (b.i.d.) administration. The effect of the drug in the RSBM was compared to the effect of fluoxetine (10 mg/kg) and vehicle (0.5% methylcellulose). The effect of the drug in the RDBM was compared with the effect of lithium (100 mg/kg) and vehicle (0.5% methylcellulose). The endpoints measured were the development of a significant reduction of submissive or dominant behavior and its time of onset.
The DSR developed by two rats competing for food uses the apparatus in FIG. 1.
In the experiments described in this report Sprague-Dawley rats weighing 160 to 180 g were used. Testing for the development of a DSR between paired rats begins with the random assignment of rats into pairs. […]
(§2) The test involves placing each member of a pair in opposite chambers of the testing apparatus. […] The test is conducted once a day over a 5-minute period and the time spent on the feeder by each animal is recorded. […]

dominant rats = assay: Reduction of Dominant Behavior Model (RDBM) of mania, dominant-submissive rat food competition test; assay type: in vivo, Sprague-Dawley rats; conditions: 5 weeks, dominant rat treated
Text: as §1, with “The partner of the drug-treated animal was treated with vehicle.” left out
The objective of this study was to determine if COMPOUND #7 is active in the Reduction of Submissive Behavior Model (RSBM) of depression and the Reduction of Dominant Behavior Model (RDBM) of mania. […] The endpoints measured were the development of a significant reduction of submissive or dominant behavior and its time of onset. […]
as §2

[1] = tested on: Crl:CD-1(ICR)BR albino mice; assay: Isolation-induced aggression model in pairs of mice; assay type: in vivo
Experimental: The effects of test compound on the aggressive behavior of Crl:CD-1(ICR)BR albino mice were evaluated using the paradigm of isolation-induced aggression.
Male Crl:CD-1(ICR)BR albino mice, fasted overnight, were individually housed for 5 weeks in plastic cages on wood-chip bedding. Subsequently, they were paired for 1 minute daily for several days by placing one individually housed mouse (intruder) into the resident cage of another individually housed mouse (resident). The 1-minute pairing of intruder and resident mouse elicits aggressive behavior. Pairs of mice showing consistent aggressive behavior when paired for 1 minute, during several days were selected as subjects for drug testing.
Test compound (10 to 40 mg/kg p.o.) or the vehicle (methocel; aqueous 0.5%, w/v, hydroxypropyl methylcellulose solution) was administered (10 mL/kg) to the resident and intruder mouse. One and 4 hours after dosing, the mice were paired and the onset of fighting was recorded. […] The duration of fighting during a 1-minute test period was recorded. Mice were re-used in this procedure after several days to a week to allow metabolism and elimination of test compounds. The mice weighed 32 to 49 g at the time of testing and were fasted overnight before dosing. Mice were euthanized with CO2 if they were sick or injured.
Results were expressed as the median onset of fighting and median duration of fighting in vehicle and drug-treated groups. The statistical significance of an increase in the median onset or a reduction in the median duration of fighting in pairs of mice given test compound or its vehicle 1 and 4 hours after administration was determined using the nonparametric Wilcoxon test (p<0.05, 1-tailed).

male mice = assay: General behavior of male mice, visual observation using a checklist of behaviors; assay type: in vivo; conditions: for Number of Mice Affected: Decreased Open Field Activity / Number of Mice Affected: Decreased Startle Reflex / Number of Mice Affected: Extensor Limb Tone (hind limb) / Number of Mice Affected: Impaired Horizontal Screen Performance / Number of Mice Affected: Impaired Visual Placing Reflex / Number of Mice Affected: Locomotor Ataxia / Number of Mice Affected: Loss of Corneal Reflex / Number of Mice Affected: Loss of Pinnal Reflex / Number of Mice Affected: Loss of Righting Reflex / Number of Mice Affected: Passive Response to Handling / Number of Mice Affected: Reduced Skin Plasticity / Number of Mice Affected: Soft Body Tone / Number of Mice Affected: Tail Pinch Response, Absent: N = 3/group
Experimental: The effects of test compound on general behavior were evaluated by visual observation using a checklist of behaviors.

NC(=O)OC[C@@H](O)c1ccccc1Cl [COMPOUND #7]
Effect on submissive rat behavior (competitiveness, time spent at feeder) (submissive rats; 3 mg/kg b.i.d. p.o.): did not have any effect | Effect on submissive rat behavior (competitiveness, time spent at feeder) (submissive rats; 30 mg/kg b.i.d. p.o., vs vehicle-treated): significantly increased competitiveness | Effect on performance (competitiveness) of dominant rats (dominant rats; 3 mg/kg b.i.d. p.o.): decreased the performance | Effect on performance (competitiveness) of dominant rats (dominant rats; 30 mg/kg b.i.d. p.o.): significantly increased the competitiveness | Onset for initiation of fighting compared to vehicle-treated group ([1]; 20 mg/kg p.o., 4 hours after administration): statistically significantly shorter | Effect on isolation-induced aggressive behavior ([1]; 40 mg/kg p.o., 1 hour after administration, vs vehicle (p<0.05)): inhibited isolation-induced aggressive behavior | Effect on median duration of fighting compared to vehicle-treated groups ([1]; any dose group (10 to 40 mg/kg p.o.), 4 hours after administration): not affected | Number of Mice Affected: Decreased Open Field Activity (male mice; 40 mg/kg p.o., 1 h): 0 | Number of Mice Affected: Decreased Startle Reflex (male mice; 40 mg/kg p.o., 1 h): 0 | Number of Mice Affected: Extensor Limb Tone (hind limb) (male mice; 40 mg/kg p.o., 1 h): 0 | Number of Mice Affected: Impaired Horizontal Screen Performance (male mice; 40 mg/kg p.o., 1 h): 0 | Number of Mice Affected: Impaired Visual Placing Reflex (male mice; 40 mg/kg p.o., 1 h): 0 | Number of Mice Affected: Locomotor Ataxia (male mice; 40 mg/kg p.o., 1 h): 0 | Number of Mice Affected: Loss of Corneal Reflex (male mice; 40 mg/kg p.o., 1 h): 0 | Number of Mice Affected: Loss of Pinnal Reflex (male mice; 40 mg/kg p.o., 1 h): 0 | Number of Mice Affected: Loss of Righting Reflex (male mice; 40 mg/kg p.o., 1 h): 0 | Number of Mice Affected: Passive Response to Handling (male mice; 40 mg/kg p.o., 1 h): 0 | Number of Mice Affected: Reduced Skin Plasticity (male mice; 40 mg/kg p.o., 1 h): 0 | Number of Mice Affected: Soft Body Tone (male mice; 40 mg/kg p.o., 1 h): 0 | Number of Mice Affected: Tail Pinch Response, Absent (male mice; 40 mg/kg p.o., 1 h): 0 | Number of Mice Affected: Decreased Open Field Activity (male mice; 40 mg/kg p.o., 4 h): 0 | Number of Mice Affected: Decreased Startle Reflex (male mice; 40 mg/kg p.o., 4 h): 0 | Number of Mice Affected: Extensor Limb Tone (hind limb) (male mice; 40 mg/kg p.o., 4 h): 0 | Number of Mice Affected: Impaired Horizontal Screen Performance (male mice; 40 mg/kg p.o., 4 h): 0 | Number of Mice Affected: Impaired Visual Placing Reflex (male mice; 40 mg/kg p.o., 4 h): 0 | Number of Mice Affected: Locomotor Ataxia (male mice; 40 mg/kg p.o., 4 h): 0 | Number of Mice Affected: Loss of Corneal Reflex (male mice; 40 mg/kg p.o., 4 h): 0 | Number of Mice Affected: Loss of Pinnal Reflex (male mice; 40 mg/kg p.o., 4 h): 0 | Number of Mice Affected: Loss of Righting Reflex (male mice; 40 mg/kg p.o., 4 h): 0 | Number of Mice Affected: Passive Response to Handling (male mice; 40 mg/kg p.o., 4 h): 0 | Number of Mice Affected: Reduced Skin Plasticity (male mice; 40 mg/kg p.o., 4 h): 0 | Number of Mice Affected: Soft Body Tone (male mice; 40 mg/kg p.o., 4 h): 0 | Number of Mice Affected: Tail Pinch Response, Absent (male mice; 40 mg/kg p.o., 4 h): 0 | Number of Mice Affected: Decreased Open Field Activity (male mice; 100 mg/kg p.o., 1 h): 0 | Number of Mice Affected: Decreased Startle Reflex (male mice; 100 mg/kg p.o., 1 h): 0 | Number of Mice Affected: Extensor Limb Tone (hind limb) (male mice; 100 mg/kg p.o., 1 h): 0 | Number of Mice Affected: Impaired Horizontal Screen Performance (male mice; 100 mg/kg p.o., 1 h): 0 | Number of Mice Affected: Impaired Visual Placing Reflex (male mice; 100 mg/kg p.o., 1 h): 0 | Number of Mice Affected: Locomotor Ataxia (male mice; 100 mg/kg p.o., 1 h): 0 | Number of Mice Affected: Loss of Corneal Reflex (male mice; 100 mg/kg p.o., 1 h): 0 | Number of Mice Affected: Loss of Pinnal Reflex (male mice; 100 mg/kg p.o., 1 h): 0 | Number of Mice Affected: Loss of Righting Reflex (male mice; 100 mg/kg p.o., 1 h): 0 | Number of Mice Affected: Passive Response to Handling (male mice; 100 mg/kg p.o., 1 h): 0 | Number of Mice Affected: Reduced Skin Plasticity (male mice; 100 mg/kg p.o., 1 h): 0 | Number of Mice Affected: Soft Body Tone (male mice; 100 mg/kg p.o., 1 h): 0 | Number of Mice Affected: Tail Pinch Response, Absent (male mice; 100 mg/kg p.o., 1 h): 0 | Number of Mice Affected: Decreased Open Field Activity (male mice; 100 mg/kg p.o., 4 h): 0 | Number of Mice Affected: Decreased Startle Reflex (male mice; 100 mg/kg p.o., 4 h): 0 | Number of Mice Affected: Extensor Limb Tone (hind limb) (male mice; 100 mg/kg p.o., 4 h): 0 | Number of Mice Affected: Impaired Horizontal Screen Performance (male mice; 100 mg/kg p.o., 4 h): 0 | Number of Mice Affected: Impaired Visual Placing Reflex (male mice; 100 mg/kg p.o., 4 h): 0 | Number of Mice Affected: Locomotor Ataxia (male mice; 100 mg/kg p.o., 4 h): 0 | Number of Mice Affected: Loss of Corneal Reflex (male mice; 100 mg/kg p.o., 4 h): 0 | Number of Mice Affected: Loss of Pinnal Reflex (male mice; 100 mg/kg p.o., 4 h): 0 | Number of Mice Affected: Loss of Righting Reflex (male mice; 100 mg/kg p.o., 4 h): 0 | Number of Mice Affected: Passive Response to Handling (male mice; 100 mg/kg p.o., 4 h): 0 | Number of Mice Affected: Reduced Skin Plasticity (male mice; 100 mg/kg p.o., 4 h): 0 | Number of Mice Affected: Soft Body Tone (male mice; 100 mg/kg p.o., 4 h): 0 | Number of Mice Affected: Tail Pinch Response, Absent (male mice; 100 mg/kg p.o., 4 h): 0 | Behavioral or physical signs (general behavior) (male mice; 300 mg/kg p.o.): produced sedation | Number of Mice Affected: Decreased Open Field Activity (male mice; 300 mg/kg p.o., 1 h): 3 | Number of Mice Affected: Decreased Startle Reflex (male mice; 300 mg/kg p.o., 1 h): 3 | Number of Mice Affected: Extensor Limb Tone (hind limb) (male mice; 300 mg/kg p.o., 1 h): 3 | Number of Mice Affected: Impaired Horizontal Screen Performance (male mice; 300 mg/kg p.o., 1 h): 3 | Number of Mice Affected: Impaired Visual Placing Reflex (male mice; 300 mg/kg p.o., 1 h): 3 | Number of Mice Affected: Locomotor Ataxia (male mice; 300 mg/kg p.o., 1 h): 0 | Number of Mice Affected: Loss of Corneal Reflex (male mice; 300 mg/kg p.o., 1 h): 3 | Number of Mice Affected: Loss of Pinnal Reflex (male mice; 300 mg/kg p.o., 1 h): 3 | Number of Mice Affected: Loss of Righting Reflex (male mice; 300 mg/kg p.o., 1 h): 3 | Number of Mice Affected: Passive Response to Handling (male mice; 300 mg/kg p.o., 1 h): 3 | Number of Mice Affected: Reduced Skin Plasticity (male mice; 300 mg/kg p.o., 1 h): 3 | Number of Mice Affected: Soft Body Tone (male mice; 300 mg/kg p.o., 1 h): 3 | Number of Mice Affected: Tail Pinch Response, Absent (male mice; 300 mg/kg p.o., 1 h): 3 | Number of Mice Affected: Decreased Open Field Activity (male mice; 300 mg/kg p.o., 4 h): 2 | Number of Mice Affected: Decreased Startle Reflex (male mice; 300 mg/kg p.o., 4 h): 0 | Number of Mice Affected: Extensor Limb Tone (hind limb) (male mice; 300 mg/kg p.o., 4 h): 2 | Number of Mice Affected: Impaired Horizontal Screen Performance (male mice; 300 mg/kg p.o., 4 h): 2 | Number of Mice Affected: Impaired Visual Placing Reflex (male mice; 300 mg/kg p.o., 4 h): 0 | Number of Mice Affected: Locomotor Ataxia (male mice; 300 mg/kg p.o., 4 h): 2 | Number of Mice Affected: Loss of Corneal Reflex (male mice; 300 mg/kg p.o., 4 h): 0 | Number of Mice Affected: Loss of Pinnal Reflex (male mice; 300 mg/kg p.o., 4 h): 0 | Number of Mice Affected: Loss of Righting Reflex (male mice; 300 mg/kg p.o., 4 h): 0 | Number of Mice Affected: Passive Response to Handling (male mice; 300 mg/kg p.o., 4 h): 0 | Number of Mice Affected: Reduced Skin Plasticity (male mice; 300 mg/kg p.o., 4 h): 0 | Number of Mice Affected: Soft Body Tone (male mice; 300 mg/kg p.o., 4 h): 2 | Number of Mice Affected: Tail Pinch Response, Absent (male mice; 300 mg/kg p.o., 4 h): 0 | Behavioral or physical signs (general behavior) (male mice; doses up to 100 mg/kg p.o.): No behavioral or physical signs were observed

CC(N)Cc1ccccc1 (stereo not shown) [amphetamine, reference compound]
Effect on submissive behavior (submissive rats; treatment of submissive rats, unpublished observation): ineffective
